Holding throughout (assay type): cell-based
One data set deals with tumors. As to the kind of experiment: Activity summary of exemplary deuterated compounds (Table 1). To be noted: Table 1 summary, result in words.
The subject of data set [1] is human patient-derived cancer cell lines. As to the kind of experiment: Cytotoxicity against the tested cancer cell lines (overall statement). To be noted: A375, LN18 and H1792 cells, result in words. The method, then:
(§1) Cytotoxicity of DiD3, DiD5, QHD3, QHD5, KRMD3, and KRMD5 was assessed in A375 human melanoma cells, LN18 human glioma cells, and H1792 human NSCLC cells.
(§2) Each compound powder was weighed and dissolved in DMSO to a concentration of 40 mM. Dissolved compounds were stored at 4° C. Drug dilutions were prepared in phenol free medium as follows:
(§3) Cell culture process: Optimum cell number for each cell line was determined and the cell number giving about 1.0 OD value after one hour of incubation with the CellTiter 96® AQueous One Solution Cell Proliferation Assay reagent (Promega) was selected for cell proliferation experiments. On Day 1, cells were trypsinized, counted, and diluted to: A375 human melanoma cells: 30000 cells/mL (3000 cells/100 μL or 3000 cells/well); LN18 human glioma cells: 50000 cells/mL (5000 cells/100 μL or 5000 cells/well); and H1792 human NSCLC cells: 12000 cells/mL (1200 cells/100 μL or 1200 cells/well).
100 μL of cell suspension was added to 96 well plates. Rows B to G and columns 2 to 11 were seeded with cells. […]
Data analysis: the average OD from the five wells containing medium and no cells (A2 to A6) was calculated and the value subtracted from each individual OD reading. The OD readings for each drug dilution was normalized to DMSO control, set as 100% cell viability/proliferation. […]

The test system of a further data set is LN18 human glioma cells. As to the kind of experiment: Cytotoxicity assay (CellTiter 96 AQueous One), LN18 cells. The conditions noted are these: LN-18, 72 h, read-out: Cytotoxicity of deuterated compounds (IC50, μM). The method, then: as §1, §2, §3
(§4) 100 μL of cell suspension was added to 96 well plates. Rows B to G and columns 2 to 11 were seeded with cells. Outer wells around the plate were filled with 100 μL phosphate buffered saline (PBS), except wells A2 to A6, which were filled with medium without cells. Cells were then incubated 24 hours and allowed to attach.
(§5) On Day 2: drug and controls were added to the plated cells as follows: background control: medium in wells A2 to A6 was aspirated and replaced with 100 μL fresh medium; control and test dilutions: medium was carefully aspirated and 100 μL of DMSO control or diluted drug was added to 5 consecutive wells in the same row. After drug addition, plates were returned to the incubator for 48 to 72 hours.
(§6) On Day 5 or 6:20 μL of CellTiter 96® AQueous One Solution Cell Proliferation Assay reagent (Promega) was added to each control or test well, incubated 1 to 2 hours, and then OD was acquired at 490 nm.
(§7) Data analysis: the average OD from the five wells containing medium and no cells (A2 to A6) was calculated and the value subtracted from each individual OD reading. The OD readings for each drug dilution was normalized to DMSO control, set as 100% cell viability/proliferation. Log drug concentration versus percentage viability was then plotted using GraphPad Prism.

Data set [2] relates to A375 human melanoma cells. The data set can be described thus: Cytotoxicity assay (CellTiter 96 AQueous One), A375 cells. To be noted: A-375, 72 h, read-out: Cytotoxicity of deuterated compounds (IC50, μM). The method, then: as §1, §2, §3, §4, §5, §6, §7
A further data set deals with H1792 human NSCLC cells. The data set can be described thus: Cytotoxicity assay (CellTiter 96 AQueous One), H1792 cells. The conditions noted are these: NCI-H1792, 72 h, read-out: Cytotoxicity of deuterated compounds (IC50, μM). The method, then:
as §1, §2, §3, §4, §5, §6, §7

SMILES strings stand for the structures.

Take `[2H]C([2H])([2H])N1C(=O)CN=C(c2ccccc2)c2cc(Cl)ccc21` [DiD3]: the result with tumors was Inactive. Besides, the “Cytotoxicity against the tested human patient-derived cancer cell lines” value in data set [1] is “non-cytotoxic”.
For the compound `[2H]C([2H])([2H])N1C(=O)CN=C(c2ccccc2)c2cc(C#C)ccc21` [QHD3], the Activity result in the data set with tumors is reported as “Active against tumors”. The figures for the 50% inhibitory concentration (IC50) (in the data set with LN18 human glioma cells; in data set [2]; with H1792 human NSCLC cells) were 1.81 µM, 0.31 µM and 1.75 µM, respectively.
Regarding `[2H]C1([2H])N=C(c2ccccc2)c2cc(Cl)ccc2N(C([2H])([2H])[2H])C1=O` [DiD5], in the data set on tumors, the outcome was Inactive. The “Cytotoxicity against the tested human patient-derived cancer cell lines” value in data set [1] was “non-cytotoxic”.
Consider `[2H]C([2H])([2H])N1C(=O)CN=C(c2ccccc2F)c2cc(C#C)ccc21` [KRMD3], for which the Activity result in the data set on tumors is “Active against tumors”. The values for the IC50 (in the data set on LN18 human glioma cells; in data set [2]; with H1792 human NSCLC cells) were 2.43 µM, 0.35 µM and 2.13 µM, respectively.
Taken in the same sequence, the figures for `[2H]C1([2H])N=C(c2ccccc2)c2cc(C#C)ccc2N(C([2H])([2H])[2H])C1=O` [QHD5] were “Active against tumors”, 2.51 µM, 0.46 µM and 1.98 µM.
For `[2H]C1([2H])N=C(c2ccccc2F)c2cc(C#C)ccc2N(C([2H])([2H])[2H])C1=O` [KRMD5] the same measures were “Active against tumors”, 2.67 µM, 0.63 µM and 2.52 µM.

The values above are taken from patent US20250236597A1, “DEUTERATED BENZODIAZEPINE ANALOGS AND METHODS OF USE IN TREATING CANCER” (University of Cincinnati, priority 2022, published 2025).
